Among the data in patent publication US11274100B2, “EP300/CREBBP inhibitor” (Daiichi Sankyo Company, Limited, priority 2017, dated 2022) are GI50 and IC50 values, retold here.

One assay has as its system LK2 cells. As to the kind of experiment: Cell growth inhibitory activity, LK2 cells (Test Example 3). Format: cell-based. Conditions: Homo sapiens, LK-2, 72 h, cultured for 3 days, CellTiter-Glo. Summed up:
(§1)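 LK2 and TE-8 […] cells in RPMI 1640 with 10% FBS exposed to 10-point 4-fold dilutions (10 mM to 38 nM, stock series) for 3 days. ATP luminescence (CellTiter-Glo 2.0) at day 0 and day 3 gave survival as (T3−C0)/(C3−C0)×100; GI50 from semilog plot.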

The next assay concerns the target CREBBP (Homo sapiens, UniProt Q92793). As to the kind of experiment: Histone acetyltransferase inhibitory activity against CREBBP (Test Example 1). Format: biochemical. Particulars: 125 ng/mL CREBBP, 2 μM Acetyl-CoA, 100 nM Histone H4(1-25)-GSGSK (Biotin), 28° C. for 1 hour. Summed up:
(§2)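 Enzyme (50 ng/mL EP300 or 125 ng/mL CREBBP) incubated 1 h at 28° C with 2 μM acetyl-CoA, 100 nM biotinylated histone H4(1-25) peptide and 10 to 0.0006 μM compound in pH 8.0 Tris buffer with 330 nM trichostatin A, 1% DMSO. Reaction stopped with Lys-CoA; acetylation read by TR-FRET (Eu-anti pan-Ac/Sta-ULight) after overnight room-temperature incubation.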

The test system of a further assay is H3K27Ac. Put plainly: Intracellular H3K27Ac inhibitory activity in LK2 cells (Test Example 2). Format: cell-based. Conditions: Homo sapiens, LK-2, cultured with compound for 3 hours, read-out: Test Example 2 H3K27Ac Inhibition (LK2) IC50. In outline: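 Human squamous lung cancer LK2 cells (40000/well) cultured overnight at 37 °C, 5% CO2 before treatment. After paraformaldehyde fixation, peroxide quench and blocking, H3K27 acetylation detected with anti-acetyl-H3K27 rabbit mAb (4 °C overnight) and HRP secondary; chemiluminescent read-out.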

Another assay deals with TE-8 cells. As to the kind of experiment: Cell growth inhibitory activity, TE-8 cells (Test Example 3). The assay is classed as cell-based. Conditions: Homo sapiens, 72 h, cultured for 3 days, CellTiter-Glo. Summed up: as §1
(In general: Cellular ATP, detected with luciferase, serves as a proxy for viable cell number.)

Another assay addresses EP300 (Homo sapiens, UniProt Q09472). Put plainly: Histone acetyltransferase inhibitory activity against EP300 (Test Example 1). Format: biochemical. Conditions: 50 ng/mL EP300, 2 μM Acetyl-CoA, 100 nM Histone H4(1-25)-GSGSK (Biotin), 28° C. for 1 hour. Summed up:
as §2

For orientation: GI50 means the concentration that inhibits growth by half. A word on the IC50: it is the concentration that inhibits the measured activity by half.

Sequence of CREBBP (Q92793 whole entry): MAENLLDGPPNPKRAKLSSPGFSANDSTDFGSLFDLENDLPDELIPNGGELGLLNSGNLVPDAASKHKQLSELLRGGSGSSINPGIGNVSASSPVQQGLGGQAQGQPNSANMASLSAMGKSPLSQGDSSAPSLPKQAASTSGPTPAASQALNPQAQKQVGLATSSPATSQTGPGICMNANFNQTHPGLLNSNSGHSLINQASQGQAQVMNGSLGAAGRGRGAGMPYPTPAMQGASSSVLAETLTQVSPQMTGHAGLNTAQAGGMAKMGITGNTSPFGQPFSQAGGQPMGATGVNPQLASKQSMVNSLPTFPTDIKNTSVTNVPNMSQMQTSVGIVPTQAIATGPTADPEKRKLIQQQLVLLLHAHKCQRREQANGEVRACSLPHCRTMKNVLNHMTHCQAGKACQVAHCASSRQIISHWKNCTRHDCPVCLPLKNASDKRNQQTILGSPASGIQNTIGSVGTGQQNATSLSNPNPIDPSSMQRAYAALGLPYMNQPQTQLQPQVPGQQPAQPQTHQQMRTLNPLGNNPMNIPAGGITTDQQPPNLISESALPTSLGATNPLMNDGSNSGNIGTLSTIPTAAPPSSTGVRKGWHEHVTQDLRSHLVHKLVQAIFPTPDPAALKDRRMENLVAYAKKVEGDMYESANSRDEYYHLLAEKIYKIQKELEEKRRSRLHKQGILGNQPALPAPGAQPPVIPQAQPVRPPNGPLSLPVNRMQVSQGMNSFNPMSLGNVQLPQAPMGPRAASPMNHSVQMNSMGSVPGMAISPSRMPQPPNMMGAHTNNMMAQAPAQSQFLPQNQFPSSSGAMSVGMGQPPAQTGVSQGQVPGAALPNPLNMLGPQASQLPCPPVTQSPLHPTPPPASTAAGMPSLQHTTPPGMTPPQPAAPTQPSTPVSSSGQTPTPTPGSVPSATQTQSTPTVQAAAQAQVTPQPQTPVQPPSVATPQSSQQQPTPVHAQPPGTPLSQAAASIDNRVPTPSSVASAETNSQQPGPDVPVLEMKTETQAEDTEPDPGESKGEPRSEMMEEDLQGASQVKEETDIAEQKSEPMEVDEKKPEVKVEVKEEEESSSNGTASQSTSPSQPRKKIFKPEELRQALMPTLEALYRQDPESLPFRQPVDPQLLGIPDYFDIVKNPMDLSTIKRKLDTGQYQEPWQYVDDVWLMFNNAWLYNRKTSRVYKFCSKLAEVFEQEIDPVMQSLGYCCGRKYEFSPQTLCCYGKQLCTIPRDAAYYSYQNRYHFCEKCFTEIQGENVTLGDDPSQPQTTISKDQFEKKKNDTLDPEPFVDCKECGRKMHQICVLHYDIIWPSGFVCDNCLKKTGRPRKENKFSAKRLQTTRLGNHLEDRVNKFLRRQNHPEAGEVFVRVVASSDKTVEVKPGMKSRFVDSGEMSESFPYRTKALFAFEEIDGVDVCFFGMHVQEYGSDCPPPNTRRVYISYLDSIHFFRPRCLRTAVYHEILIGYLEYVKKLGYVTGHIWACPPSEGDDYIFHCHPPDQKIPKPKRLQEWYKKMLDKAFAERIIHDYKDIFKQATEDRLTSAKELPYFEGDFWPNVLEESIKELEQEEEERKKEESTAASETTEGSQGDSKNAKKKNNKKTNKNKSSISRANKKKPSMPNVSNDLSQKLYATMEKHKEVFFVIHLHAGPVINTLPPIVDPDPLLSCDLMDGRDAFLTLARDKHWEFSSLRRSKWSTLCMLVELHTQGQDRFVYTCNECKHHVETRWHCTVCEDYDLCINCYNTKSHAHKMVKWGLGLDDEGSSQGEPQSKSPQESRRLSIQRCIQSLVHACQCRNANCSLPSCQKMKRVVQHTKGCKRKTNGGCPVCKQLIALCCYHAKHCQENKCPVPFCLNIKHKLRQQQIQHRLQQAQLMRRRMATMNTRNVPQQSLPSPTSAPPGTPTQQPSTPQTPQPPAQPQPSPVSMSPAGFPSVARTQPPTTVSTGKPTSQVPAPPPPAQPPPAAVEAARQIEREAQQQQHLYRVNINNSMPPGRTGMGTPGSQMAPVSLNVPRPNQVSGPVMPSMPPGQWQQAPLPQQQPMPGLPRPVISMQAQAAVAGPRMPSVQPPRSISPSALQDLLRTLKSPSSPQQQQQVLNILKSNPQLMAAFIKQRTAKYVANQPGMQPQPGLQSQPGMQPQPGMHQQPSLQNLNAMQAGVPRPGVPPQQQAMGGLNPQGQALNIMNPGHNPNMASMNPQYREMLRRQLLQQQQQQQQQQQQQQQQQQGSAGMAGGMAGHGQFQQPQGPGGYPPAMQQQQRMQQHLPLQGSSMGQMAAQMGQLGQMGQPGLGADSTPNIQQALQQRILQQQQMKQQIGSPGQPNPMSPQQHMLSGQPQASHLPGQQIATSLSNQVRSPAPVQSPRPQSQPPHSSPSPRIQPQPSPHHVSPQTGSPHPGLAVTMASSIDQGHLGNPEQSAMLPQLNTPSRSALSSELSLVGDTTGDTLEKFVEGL
Sequence of EP300 (Q09472 whole entry): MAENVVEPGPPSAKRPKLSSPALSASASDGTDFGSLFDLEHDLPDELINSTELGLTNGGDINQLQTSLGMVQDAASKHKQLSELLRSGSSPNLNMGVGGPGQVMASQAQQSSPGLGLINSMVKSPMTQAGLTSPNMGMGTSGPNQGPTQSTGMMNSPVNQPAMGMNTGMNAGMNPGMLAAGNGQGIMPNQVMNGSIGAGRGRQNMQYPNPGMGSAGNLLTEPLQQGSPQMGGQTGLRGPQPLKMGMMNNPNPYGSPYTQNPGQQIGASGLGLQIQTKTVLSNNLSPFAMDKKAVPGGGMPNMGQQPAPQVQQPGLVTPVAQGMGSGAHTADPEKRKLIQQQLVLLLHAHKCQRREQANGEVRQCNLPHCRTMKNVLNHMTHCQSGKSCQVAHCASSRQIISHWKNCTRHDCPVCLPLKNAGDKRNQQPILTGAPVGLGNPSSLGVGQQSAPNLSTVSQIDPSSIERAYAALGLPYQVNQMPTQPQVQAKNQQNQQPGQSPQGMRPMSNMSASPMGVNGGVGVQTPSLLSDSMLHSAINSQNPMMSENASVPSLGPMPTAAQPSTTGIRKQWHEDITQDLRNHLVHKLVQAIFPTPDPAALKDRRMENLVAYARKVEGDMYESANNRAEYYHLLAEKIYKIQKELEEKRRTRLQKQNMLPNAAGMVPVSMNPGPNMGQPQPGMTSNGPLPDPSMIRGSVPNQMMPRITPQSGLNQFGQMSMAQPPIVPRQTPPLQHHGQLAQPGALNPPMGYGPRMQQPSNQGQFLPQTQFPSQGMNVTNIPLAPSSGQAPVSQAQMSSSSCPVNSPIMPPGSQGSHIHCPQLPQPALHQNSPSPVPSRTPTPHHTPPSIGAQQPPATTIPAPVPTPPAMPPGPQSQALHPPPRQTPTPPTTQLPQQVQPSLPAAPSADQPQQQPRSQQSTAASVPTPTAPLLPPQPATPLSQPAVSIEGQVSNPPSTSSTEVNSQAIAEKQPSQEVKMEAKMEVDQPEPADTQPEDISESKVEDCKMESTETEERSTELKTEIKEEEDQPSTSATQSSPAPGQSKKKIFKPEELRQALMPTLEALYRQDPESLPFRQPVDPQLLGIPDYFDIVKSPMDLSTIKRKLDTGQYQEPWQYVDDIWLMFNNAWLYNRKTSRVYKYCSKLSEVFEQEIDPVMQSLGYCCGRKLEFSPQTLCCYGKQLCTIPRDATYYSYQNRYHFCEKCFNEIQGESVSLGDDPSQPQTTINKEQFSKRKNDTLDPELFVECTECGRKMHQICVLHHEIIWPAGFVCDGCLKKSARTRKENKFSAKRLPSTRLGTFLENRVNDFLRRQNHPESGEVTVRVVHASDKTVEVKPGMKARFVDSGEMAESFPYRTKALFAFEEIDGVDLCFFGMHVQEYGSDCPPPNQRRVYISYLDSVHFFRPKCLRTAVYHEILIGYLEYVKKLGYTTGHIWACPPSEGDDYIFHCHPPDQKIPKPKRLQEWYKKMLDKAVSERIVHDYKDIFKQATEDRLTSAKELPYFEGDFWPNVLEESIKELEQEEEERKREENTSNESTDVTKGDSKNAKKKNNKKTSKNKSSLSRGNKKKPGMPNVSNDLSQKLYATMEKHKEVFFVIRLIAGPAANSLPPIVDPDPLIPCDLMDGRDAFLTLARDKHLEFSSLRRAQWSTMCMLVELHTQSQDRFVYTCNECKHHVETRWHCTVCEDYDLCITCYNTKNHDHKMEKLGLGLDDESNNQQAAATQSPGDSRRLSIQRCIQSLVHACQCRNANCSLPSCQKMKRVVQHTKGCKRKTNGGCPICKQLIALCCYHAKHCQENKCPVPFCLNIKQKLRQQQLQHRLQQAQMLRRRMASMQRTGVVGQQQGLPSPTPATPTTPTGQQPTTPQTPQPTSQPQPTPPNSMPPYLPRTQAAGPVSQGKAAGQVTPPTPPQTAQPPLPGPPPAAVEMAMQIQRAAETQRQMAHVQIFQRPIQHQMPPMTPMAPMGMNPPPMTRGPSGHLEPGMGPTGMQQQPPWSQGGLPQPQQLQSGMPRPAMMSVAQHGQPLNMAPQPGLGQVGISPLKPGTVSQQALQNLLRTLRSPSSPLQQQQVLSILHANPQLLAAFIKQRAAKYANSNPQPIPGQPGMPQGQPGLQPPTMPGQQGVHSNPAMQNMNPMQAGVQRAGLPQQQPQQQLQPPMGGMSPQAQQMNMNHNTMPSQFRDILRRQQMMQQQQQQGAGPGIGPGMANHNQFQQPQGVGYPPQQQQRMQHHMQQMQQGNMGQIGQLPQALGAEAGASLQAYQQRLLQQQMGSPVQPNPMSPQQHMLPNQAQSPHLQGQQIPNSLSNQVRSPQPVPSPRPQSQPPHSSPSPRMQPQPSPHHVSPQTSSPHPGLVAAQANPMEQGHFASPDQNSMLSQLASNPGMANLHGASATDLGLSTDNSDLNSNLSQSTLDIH

Consider `COc1ccc(C2(C(=O)N3CS(=O)(=O)C[C@@H]3C(=O)Nc3ccc4[nH]ncc4n3)CCC(F)(F)CC2)cc1` [Example 68, (4S)-3-{[4,4-Difluoro-1-(4-methoxyphenyl)cyclohexyl]carbonyl}-N-(1H-pyrazolo[4,3-b]pyridin-5-yl)-1,3-thiazolidine-4-carboxamide 1,1-dioxide], for which the GI50 in the assay with LK2 cells is 510 nM; in the assay on TE-8 cells it was 819 nM. Besides, the values for the 50% inhibitory concentration (IC50) on CREBBP, in the assay with H3K27Ac and against EP300 were 122 nM, 42 nM and 49 nM, respectively.

With `COc1ccc(C2(C(=O)N3C[C@H](F)C[C@@H]3C(=O)Nc3ccc4[nH]ncc4n3)CC(F)(F)C2)cc1` [Example 56, (4R)-1-{[3,3-Difluoro-1-(4-methoxyphenyl)cyclobutyl]carbonyl}-4-fluoro-N-1H-pyrazolo[4,3-b]pyridin-5-yl-D-prolinamide], the figures for the GI50 in the assay with LK2 cells and with TE-8 cells were 98.8 nM and 88.3 nM, respectively. For the same compound, the values for the IC50 against CREBBP, in the assay with H3K27Ac and at EP300 were 64 nM, 20 nM and 24 nM, respectively.

For `COc1ccc(C2(C(=O)N(CCO)CC(=O)Nc3ccc4[nH]ncc4n3)CCC(F)(F)CC2)cc1` [Example 72, 4,4-Difluoro-N-(2-hydroxyethyl)-1-(4-methoxyphenyl)-N-[2-oxo-2-(1H-pyrazolo[4,3-b]pyridin-5-ylamino)ethyl]cyclohexanecarboxamide], the GI50 with LK2 cells and with TE-8 cells was over 10000 nM in each case. Besides, the results for the IC50 at CREBBP, in the assay with H3K27Ac and at EP300 were 182 nM, 1150 nM and 177 nM, respectively.

As to `CS(=O)(=O)c1ccc(C2(C(=O)N3C[C@H](F)C[C@@H]3C(=O)Nc3ccc4[nH]ncc4c3C#N)CCC(F)(F)CC2)cc1` [Example 99, (4R)—N-(4-Cyano-1H-indazol-5-yl)-1-({4,4-difluoro-1-[4-(methylsulfonyl)phenyl]cyclohexyl}carbonyl)-4-fluoro-D-prolinamide], the GI50 in the assay on LK2 cells is 300 nM; in the assay with TE-8 cells, 399 nM. Further, the IC50 was 205 nM against CREBBP, 62 nM in the assay on H3K27Ac and 76 nM at EP300.

In the case of `COc1ccc(C2(C(=O)N(C)[C@H](CO)C(=O)Nc3ccc4[nH]ncc4n3)CCC(F)(F)CC2)cc1` [Example 107, 4,4-Difluoro-N-[(2R)-3-hydroxy-1-oxo-1-(1H-pyrazolo[4,3-b]pyridin-5-ylamino)propan-2-yl]-1-(4-methoxyphenyl)-N-methylcyclohexanecarboxamide], the GI50 was 99.9 nM with LK2 cells and 195 nM in the assay with TE-8 cells. For the same compound, the results for the IC50 on CREBBP, in the assay on H3K27Ac and against EP300 were 155 nM, 14 nM and 49 nM, respectively.

`COc1ccc(C2(C(=O)N3C[C@H](F)C[C@@H]3C(=O)Nc3ccc4[nH]ncc4n3)CCCCC2)cn1` [Example 63]: the GI50 with LK2 cells was 86 nM; in the assay with TE-8 cells it was 117 nM. Also, the half-inhibitory concentration (IC50) was determined as 43 nM against CREBBP, 15 nM with H3K27Ac and 34 nM on EP300.

As to `[2H]C([2H])([2H])Oc1ccc(C2(C(=O)N3C[C@H](F)C[C@@H]3C(=O)Nc3ccc4[nH]ncc4n3)CCC(F)(F)CC2)cc1F` [Example 91, (4R)-1-[(4,4-Difluoro-1-{3-fluoro-4-[(^2H3)methyloxy]phenyl}cyclohexyl)carbonyl]-4-fluoro-N-1H-pyrazolo[4,3-b]pyridin-5-yl-D-prolinamide], the GI50 in the assay on LK2 cells was 217 nM; with TE-8 cells, 364 nM. The IC50 against CREBBP stood at 75 nM; in the assay on H3K27Ac it was 89 nM; against EP300 it was 31 nM.

Consider `COc1ccc(C2(C(=O)N(C)[C@@H](C(=O)Nc3ccc4[nH]ncc4n3)[C@H](C)O)CCC(F)(F)CC2)cc1` [Example 80, 4,4-Difluoro-N-[(2R,3S)-3-hydroxy-1-oxo-1-(1H-pyrazolo[4,3-b]pyridin-5-ylamino)butan-2-yl]-1-(4-methoxyphenyl)-N-methylcyclohexanecarboxamide], for which the GI50 was 141 nM in the assay on LK2 cells and 277 nM in the assay with TE-8 cells. Besides, the IC50 was 91 nM on CREBBP, 17 nM with H3K27Ac and 78 nM at EP300.

As to `COc1ncc(C2(C(=O)N3C[C@H](F)C[C@@H]3C(=O)Nc3ccc4[nH]ncc4n3)CCCC2)cn1` [Example 64], the GI50 came out at 643 nM with LK2 cells and 1270 nM in the assay on TE-8 cells. For the same compound, the IC50 is 121 nM against CREBBP, 188 nM in the assay on H3K27Ac and 56 nM against EP300.

As to `O=C(Nc1ccc2[nH]ncc2n1)[C@H]1C[C@@H](F)CN1C(=O)C1(c2ccc(OC(F)F)c(F)c2)CCC(F)(F)CC1` [Example 89], the figures for the GI50 in the assay with LK2 cells and with TE-8 cells were 279 nM and 491 nM, respectively. Also, the IC50 amounted to 61 nM at CREBBP, 62 nM in the assay on H3K27Ac and 38 nM on EP300.

For the compound `COc1ccc(C2(C(=O)N3C[C@@H](O)C[C@@H]3C(=O)Nc3ccc4[nH]ncc4n3)CCCCC2)cc1` [Example 71, (4S)-4-Hydroxy-1-{[1-(4-methoxyphenyl)cyclohexyl]carbonyl}-N-1H-pyrazolo[4,3-b]pyridin-5-yl-D-prolinamide], the GI50 in the assay on LK2 cells worked out at 797 nM; with TE-8 cells it was 1540 nM. The figures for the IC50 at CREBBP, with H3K27Ac and against EP300 were 94 nM, 139 nM and 99 nM, respectively.

On to `COc1c(F)cc(C2(C(=O)N3C[C@H](F)C[C@@H]3C(=O)Nc3ccc4[nH]ncc4n3)CCC(F)(F)CC2)cc1F` [Example 62], for which the results for the GI50 in the assay on LK2 cells and in the assay with TE-8 cells were 489 nM and 880 nM, respectively. For the same compound, the results for the IC50 at CREBBP, in the assay with H3K27Ac and on EP300 were 87 nM, 142 nM and 76 nM, respectively.

As to `O=C(Nc1ccc2[nH]ncc2n1)[C@H]1C[C@@H](F)CN1C(=O)C1(c2ccc(-c3ccccc3)c(F)c2)CCC(F)(F)CC1` [Example 94], the GI50 in the assay with LK2 cells stood at 625 nM; with TE-8 cells it was 586 nM. Also, the figures for the IC50 against CREBBP, in the assay with H3K27Ac and at EP300 were 305 nM, 123 nM and 109 nM, respectively.

Take `COc1ccc(C2(C(=O)N3C[C@H](F)C[C@@H]3C(=O)Nc3ccc4[nH]ccc4n3)CCCCC2)cc1` [Example 50]: the GI50 came to 166 nM with LK2 cells and 288 nM with TE-8 cells. The IC50 against CREBBP was determined as 27 nM; in the assay on H3K27Ac, 27 nM; at EP300, 20 nM.

On to `COc1ccc(C2(C(=O)N3C[C@H](F)C[C@@H]3C(=O)Nc3ccc4[nH]c(C)cc4n3)CCC(F)(F)CC2)cc1` [Example 97, (4R)-1-{[4,4-Difluoro-1-(4-methoxyphenyl)cyclohexyl]carbonyl}-4-fluoro-N-(2-methyl-1H-pyrrolo[3,2-b]pyridin-5-yl)-D-prolinamide], for which the GI50 turned out to be 854 nM in the assay on LK2 cells and 1180 nM in the assay on TE-8 cells. Further, the concentration for half-maximal inhibition (IC50) came to 123 nM on CREBBP, 218 nM in the assay with H3K27Ac and 70 nM at EP300.

Take `CC(C)(O)c1ccc(C2(C(=O)N3C[C@H](F)C[C@@H]3C(=O)Nc3ccc4[nH]ncc4n3)CCCCC2)cc1` [Example 81a, (4R)-4-Fluoro-1-({1-[4-(2-hydroxypropan-2-yl)phenyl]cyclohexyl}carbonyl)-N-1H-pyrazolo[4,3-b]pyridin-5-yl-D-prolinamide]: the GI50 amounted to 167 nM in the assay on LK2 cells and 176 nM in the assay on TE-8 cells. In addition, the IC50 against CREBBP was 83 nM; in the assay with H3K27Ac it was 23 nM; against EP300, 52 nM.
